Data from patent publication US20250241906A1, “ANABOLIC DRUGS STIMULATING TYPE II COLLAGEN PRODUCTION FROM CHONDROCYTES OR THEIR PROGENITORS” (UNIVERSITY OF CENTRAL FLORIDA RESEARCH FOUNDATION, INC., priority 2022, published 2025).
Entries after “also recorded” stand apart in the source; their conditions may differ. Like-named read-outs stand apart in the source and are kept apart here.

How the values were obtained:
HuCol2gLuc aggregates [1] = assay: Biochemical assays (DNA, GAG, total collagen) on HuCol2gLuc aggregates; type: cell-based, human
Method: Biochemical Assays. Aggregates frozen at day 22, were thawed with PBS, and digested with Papain (25 μg/ml, Sigma, P4762, in 2 mM cysteine; 50 mM sodium phosphate; 2 mM EDTA at a pH 6.5, 100 μl) at 65° C. overnight. Plates were sealed with a qPCR adhesive sealing film (USA Scientific), a silicone sheet, and steel plates clamped to the plate to prevent evaporation during digestion. Half of the digest (50 μl) was transferred to another plate and frozen for hydroxyproline assessment. In the remaining digest, papain was inactivated with 0.1M sodium hydroxide (NaOH, 50 μl) followed by NaOH neutralization (100 mM Na2HPO4, 0.1 N HCL, pH 1.82, 50 μl). To quantitate DNA content, samples of the neutralized digest (20 μl) were combined with buffered Hoechst dye (#33258, 667 ng/ml, phosphate buffer pH 8, 100 μl) and fluorescence measured at an excitation of 365 nm and emission of 460 nm. For GAG assessment, 1,9-Dimethyl-methylene blue solution (195 μl) was added to neutralized digests (5 μl) and absorbance measured at 595 nm and 525 nm. Readings were corrected by subtracting 595 nm reading from 525 nm. Micrograms of DNA and GAG were calculated using a Calf thymus DNA standard (Sigma) or Chondroitin Sulfate standard (Seikagaku Corp.), respectively.
For hydroxyproline (HP) quantification, the frozen digests (50 μl) were thawed at room temperature and incubated overnight at 105° C. with 6M hydrochloric acid (200 μl). Plates were sealed to prevent evaporation. Samples were then dried at 70° C. overnight with a hydroxyproline standard (Sigma). Copper sulfate (0.15 M, 10 μl) and NaOH (2.5 M, 10 μl) were added to each well and incubated at 50° C. for 5 minutes, followed by hydrogen peroxide (6%, 10 μl) for 10 minutes. Sulfuric acid (1.5 M, 40 μl) and Ehrlich's reagent (20 μl) were added and samples incubated at 70° C. for 15 minutes. Absorbance was measured at 505 nm. Micrograms of hydroxyproline were calculated using the standard. Total collagen was calculated by the following formula (μg of HP×7.6=μg Total Collagen).

butyrylcholinesterase = butyrylcholinesterase (Homo sapiens, UniProt P06276); details: cited from earlier work
Sequence of butyrylcholinesterase (P06276 29-602): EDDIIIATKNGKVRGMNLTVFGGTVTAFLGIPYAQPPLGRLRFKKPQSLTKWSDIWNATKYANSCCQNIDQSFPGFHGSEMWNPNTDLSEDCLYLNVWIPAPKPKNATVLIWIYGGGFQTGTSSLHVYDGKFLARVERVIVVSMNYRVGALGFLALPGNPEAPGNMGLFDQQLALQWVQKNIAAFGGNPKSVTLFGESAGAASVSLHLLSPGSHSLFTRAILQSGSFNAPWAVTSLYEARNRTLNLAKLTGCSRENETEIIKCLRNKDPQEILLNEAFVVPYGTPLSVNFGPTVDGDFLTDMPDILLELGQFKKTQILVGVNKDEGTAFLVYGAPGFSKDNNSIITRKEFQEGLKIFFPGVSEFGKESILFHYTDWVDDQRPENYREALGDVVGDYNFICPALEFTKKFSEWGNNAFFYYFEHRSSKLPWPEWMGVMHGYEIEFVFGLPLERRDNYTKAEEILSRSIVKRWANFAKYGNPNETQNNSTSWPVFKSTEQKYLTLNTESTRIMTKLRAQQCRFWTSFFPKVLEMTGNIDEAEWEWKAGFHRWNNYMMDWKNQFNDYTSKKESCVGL

[2] = test system: kinase phosphorylation in primary human chondrocytes; assay: Phospho-kinase array on primary human chondrocyte lysate; type: cell-based; details: donor 2, 24 h, vs DMSO
Method: Phospho-kinase Array. Primary human chondrocytes were seeded at 5×10^6 cells (2×10 cm adherent dish, Corning) in growth media and allowed to adhere overnight. Growth media was replaced with chondrogenic media supplemented with 1 ng/mL TGFβ1 with DMSO or with drug […]. Cells were treated for 24 h before processing according to the manufacturer's protocol (ARY003C, R&D Systems). This phospho-kinase array contains capture antibodies to measure relative levels of phosphorylation of 37 kinases on a nitrocellulose membrane. Signal intensity was quantified using ImageJ.

Plasmodium falciparum = details: cited from earlier work
HuCol2gLuc aggregates [3] = assay: Metabolic assay (resazurin) on HuCol2gLuc aggregates; type: cell-based, human; details: day 22
Method: Metabolic Assay (Resazurin). Metabolic activity was assessed on day 22 by adding resazurin to a final concentration of 50 μM to each well and incubating at physioxia for 3 hours. After three hours, media (120 μl) was transferred to a 96-well black plate (Greinerbio) and fluorescence read at an excitation of 535 nm and emission at 588 nm. At OT-2 (Opentrons) python-coded robotic pipette was used to add resazurin to cell plates as well as to transfer medium to black plates.

KB cell line = details: cited from earlier work
[4] = test system: type II collagen promoter (COL2A1-Gaussia luciferase) in primary human chondrocytes; assay: HuCol2gLuc 3D aggregate type II collagen promoter-driven Gaussia luciferase assay; type: cell-based; details: for stimulation of type II collagen production in the screen of natural products: NCI Natural Products Set V, 5 μM continuously, 22-day assay; for cumulative luminescence: validation
Method: Chondrogenic Culture. Human COL2A1-GLuc or uninfected cells were thawed and seeded in growth media on synoviocyte matrix at 6,000 cells/cm^2 and expanded to 90-100% confluence in physioxia. Cells were trypsinized (0.25% Trypsin/EDTA; Corning), resuspended in growth media (for monolayer culture) or chondrogenic differentiation media for 3D aggregates (93.24% High-Glucose DMEM (Gibco), 1% dexamethasone 10^−5M (Sigma), 1% ITS+premix (Becton-Dickinson), 1% Glutamax (Hyclone), 1% 100 mM Sodium Pyruvate (Hyclone), 1% MEM Non-Essential Amino Acids (Hyclone), 0.26% L-Ascorbic Acid Phosphate 50 mM (Wako), 0.5% Fungizone (Life Technologies) with TGF-β1 (Peprotech) and seeded as described below.
Generation and Maintenance of 3D aggregates. To generate 3D aggregates, cells were seeded at 50,000 cells per well (in 96-well cell repellent u-bottom plates, GreinerBio) and then centrifuged at 500 RCF, 5 min. For the initial drug screen, aggregates were cultured in basal chondrogenic media (1 ng/ml TGF-β1) alone, with DMSO (vehicle control) or 5 μM of the drug compounds from the NCI library (Natural Products V, NCI). For candidate validation and subsequent studies aggregates were cultured in basal chondrogenic media (10 ng/ml TGF-β1) alone, with DMSO (vehicle control) or compounds as indicated in the results. Aggregates were cultured for three weeks in physioxic conditions, culture medium was sampled and replaced three times a week with fresh medium. An OT-2 (Opentrons) python coded robotic pipette, programmed at an aspiration height of 2 mm from the bottom of the wells and aspiration rate of 40 μl/s was utilized for addition of compound, cell feeding, and media sampling for luciferase assay. After three weeks, cell aggregates were either fixed in neutral buffered formalin for histology or medium removed and aggregates frozen dry (−20° C.) for biochemical assays.
Luciferase Assay. Conditioned culture medium sampled from aggregates in 96-wells (20 μL/well) was assessed using a stabilized Gaussia Luciferase buffer mix (50 µl/well) for a final concentration of 0.09 M MES, 0.15M Ascorbic Acid, and 4.2 μM Coelenterazine in white 96-well plates. Luminescence was measured in a plate reader (25° C., relative light units (RLU), En Vision plate reader). An OT-2 (Opentrons) python coded robotic pipette was utilized for luciferase buffer addition to white plates (GreinerBio).

Promoline [Drug 84]
glycosaminoglycan (GAG) content (HuCol2gLuc aggregates [1]; day 22, donor 1): not statistically significant | total collagen (HuCol2gLuc aggregates [1]; day 22, donor 1): no observable effect | DNA content (HuCol2gLuc aggregates [1]; day 22, donor 2, vs untreated): no change in DNA content | glycosaminoglycan (GAG) content (HuCol2gLuc aggregates [1]; day 22, donor 2, untreated 15 μg): decrease in GAG content | total collagen (HuCol2gLuc aggregates [1]; day 22, donor 2, untreated ~14 μg): ~21 µg | DNA content (HuCol2gLuc aggregates [1]; day 22, 10 μM): significant decrease | inhibition of butyrylcholinesterase (butyrylcholinesterase): potent inhibitor | AKT 1/2/3 phosphorylation at T308 and S473 [2]: substantial decrease | p53 S15, STAT3 Y705 phosphorylation and HSP 60 [2]: less considerable decrease | phosphorylation of CREB, EGFR, and eNOS [2]: modest increase | anti-microbial activity against Plasmodium falciparum (Plasmodium falciparum): weak anti-microbial activity | cytotoxicity (HuCol2gLuc aggregates [3]; 10 μM): cytotoxicity | resazurin fluorescence (metabolic activity) (HuCol2gLuc aggregates [3]; 0-10 μM): dose dependent decrease | cytotoxicity in the KB cell line (KB cell line): low cytotoxicity | stimulation of type II collagen production in the screen of natural products ([4]; listed as 84): stimulatory effects; also recorded: stimulatory throughout the experiment | stimulation of type II collagen production in the screen of natural products ([4]; listed as Promoline): stimulate type II collagen | EC50 ([4]; cumulative luminescence over 22 days): 3070 nM | EC50 ([4]; day 3, 0-10 μM, read-out: EC50 type II collagen driven-luminescence): 2460 nM | EC50 ([4]; day 10, 0-10 μM, read-out: EC50 type II collagen driven-luminescence): 2580 nM | stimulation of type II collagen production during the early stages ([4]; natural product screen, day 8 volcano plot): stimulate type II collagen production during the early stages | day 22 luminescence normalized to DMSO vehicle control ([4]; screen, 5 μM, 1 ng/ml TGF-β1): significant increase in luminescence | trend of luminescence over 22 days normalized to DMSO ([4]; screen, 5 μM, 1 ng/ml TGF-β1): increase over the control as early as day 3 with a sustained increase in expression over 22 days | cumulative luminescence ([4]; donor 1): no significant effect | cumulative luminescence ([4]; donor 2): significant increase
